Laboratory results published in patent US20250195530A1, “POLQ INHIBITORS” (ASTRAZENECA AB, priority 2022, published 2025).

The compounds below were run on DLD-1 BRCA2−/− cells (assay: Homologous recombination synthetic lethal inhibition of proliferation, DLD-1 BRCA2-/- (Cell Titre Glo 3D)). Settings: DLD-1 BRCA2-/- proliferation; column head only partly shown.
Assay type: cell-based
Summary of the method: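 Wild-type DLD-1 serves as the control for non-specific toxicity, and BRCA2-null DLD-1 as the homologous-recombination-deficient line. Both grew with compound from 10 μM down to 0.51 nM, re-dosed after 6 days. Luminescent ATP content (CellTiter-Glo 3D) was read after 7 or 12 days, respectively, to give IC50 values.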

In order of falling “POLQ PD Prolif Lumin” value:
1. CC1(Oc2ncnc3c2nc(-c2cccc(O[C@H]4C[C@@H](C(=O)O)C4)c2Cl)n3Cc2cccc(Cl)c2)CC1 [Example T257, (1s,3s)-3-(2-chloro-3-(9-(3-chlorobenzyl)-6-(1-methylcyclopropoxy)-9H-purin-8-yl)phenoxy)cyclobutane-1-carboxylic acid]  7
2. CC1(Oc2ncnc3c2nc(-c2cccc(O[C@H]4C[C@H](C(=O)O)C4)c2Cl)n3Cc2cccc(Cl)c2)CC1 [Example T256, (1r,3r)-3-(2-chloro-3-(9-(3-chlorobenzyl)-6-(1-methylcyclopropoxy)-9H-purin-8-yl)phenoxy)cyclobutane-1-carboxylic acid]  6.9

Same assay, conditions: Homo sapiens, DLD-1, DLD-1 BRCA2-/- proliferation; column head only partly shown; read-out: POLQ PD Prolif Lumin (converted)

`Cc1ccnc(Cn2c(-c3ccc(OCCOCCO)cc3Cl)nc3c(OC4(C)CC4)ncnc32)c1` [Example T233, 2-(2-(3-chloro-4-(6-(1-methylcyclopropoxy)-9-((4-methylpyridin-2-yl)methyl)-9H-purin-8-yl)phenoxy)ethoxy)ethan-1-ol] and `C#CCNC(=O)COc1ccc(-c2nc3c(OC4(C)CC4)ncnc3n2Cc2cc(C)ccn2)c(Cl)c1` [Example T266, 2-(3-chloro-4-(6-(1-methylcyclopropoxy)-9-((4-methylpyridin-2-yl)methyl)-9H-purin-8-yl)phenoxy)-N-(prop-2-yn-1-yl)acetamide] are the same in IC50: 158 nM for the first, 158 nM for the second.

First: Cc1ccnc(Cn2c(-c3ccc(N4CCNCC4)cc3Cl)nc3c(OC4(C)CC4)ncnc32)c1 [Example T235, 8-(2-chloro-4-(piperazin-1-yl)phenyl)-6-(1-methylcyclopropoxy)-9-((4-methylpyridin-2-yl)methyl)-9H-purine]
Second: Cc1ccnc(Cn2c(-c3ccc(C(=O)N4CCNC(=O)C4)cc3Cl)nc3c(OC4(C)CC4)ncnc32)c1 [Example T287, 4-(3-chloro-4-(6-(1-methylcyclopropoxy)-9-((4-methylpyridin-2-yl)methyl)-9H-purin-8-yl)benzoyl)piperazin-2-one]
The IC50 of the first is lower: 398 nM for the first, greater than 7940 nM for the second.

Compared with `Cc1cnc(Cn2c(-c3ccc(OCCN4CC[C@@H](O)C4)cc3Cl)nc3c(OC4(C)CC4)ncnc32)s1` [Example T245, (R)-1-(2-(3-chloro-4-(6-(1-methylcyclopropoxy)-9-((5-methylthiazol-2-yl)methyl)-9H-purin-8-yl)phenoxy)ethyl)pyrrolidin-3-ol], `Cc1ccnc(Cn2c(-c3ccc(OCC(=O)N4CC(F)C4)cc3Cl)nc3c(OC4(C)CC4)ncnc32)c1` [Example T283, 2-(3-chloro-4-(6-(1-methylcyclopropoxy)-9-((4-methylpyridin-2-yl)methyl)-9H-purin-8-yl)phenoxy)-1-(3-fluoroazetidin-1-yl)ethan-1-one] is 4-fold lower in IC50: 631 nM for the first, 158 nM for the second.

Compared with `Cc1ccnc(Cn2c(-c3ccc(NCCN(C)C)cc3Cl)nc3c(OC4(C)CC4)ncnc32)c1` [Example T247, N1-(3-chloro-4-(6-(1-methylcyclopropoxy)-9-((4-methylpyridin-2-yl)methyl)-9H-purin-8-yl)phenyl)-N2,N2-dimethylethane-1,2-diamine], `Cc1ccnc(Cn2c(-c3ccc(C(=O)N(C)CCC#N)cc3Cl)nc3c(OC4(C)CC4)ncnc32)c1` [Example T286, 3-chloro-N-(2-cyanoethyl)-N-methyl-4-(6-(1-methylcyclopropoxy)-9-((4-methylpyridin-2-yl)methyl)-9H-purin-8-yl)benzamide] is 2.5-fold higher in IC50: 501 nM for the first, 1260 nM for the second.

First: C/C(=C\COc1ccc(-c2nc3c(OC4(C)CC4)ncnc3n2Cc2cccc(Cl)c2)c(Cl)c1)C(=O)O [Example T255, (E)-4-(3-chloro-4-(9-(3-chlorobenzyl)-6-(1-methylcyclopropoxy)-9H-purin-8-yl)phenoxy)-2-methylbut-2-enoic acid]
Second: CC1(Oc2ncnc3c2nc(-c2ccc(CCCCC(=O)O)cc2Cl)n3Cc2cccc(Cl)c2)CC1 [Example T289, 5-(3-chloro-4-(9-(3-chlorobenzyl)-6-(1-methylcyclopropoxy)-9H-purin-8-yl)phenyl)pentanoic acid]
The IC50 of the first is 2.5-fold higher: 316 nM for the first, 126 nM for the second.

`Cc1ccnc(Cn2c(-c3ccc(C(=O)NC4CC(F)C4)cc3Cl)nc3c(OC4(C)CC4)ncnc32)c1` (stereo not drawn) [Example T280, 3-chloro-N-(3-fluorocyclobutyl)-4-(6-(1-methylcyclopropoxy)-9-((4-methylpyridin-2-yl)methyl)-9H-purin-8-yl)benzamide] and `Cc1ccnc(Cn2c(-c3ccc(C(=O)N4CC[C@H](F)C4)cc3Cl)nc3c(OC4(C)CC4)ncnc32)c1` [Example T281, (S)-(3-chloro-4-(6-(1-methylcyclopropoxy)-9-((4-methylpyridin-2-yl)methyl)-9H-purin-8-yl)phenyl)(3-fluoropyrrolidin-1-yl)methanone] are the same in IC50: 794 nM for the first, 794 nM for the second.

Going from `Cc1ccnc(Cn2c(-c3ccc(C(=O)N4C[C@@H](O)[C@H](F)C4)cc3Cl)nc3c(OC4(C)CC4)ncnc32)c1` [Example T282, (3-chloro-4-(6-(1-methylcyclopropoxy)-9-((4-methylpyridin-2-yl)methyl)-9H-purin-8-yl)phenyl)((3R,4R)-3-fluoro-4-hydroxypyrrolidin-1-yl)methanone] to `C[C@H](CCOc1cccc(-c2nc3c(OC4(C)CC4)ncnc3n2Cc2cccc(Cl)c2)c1Cl)C(=O)O` [Example T297, (R)-4-(2-chloro-3-(9-(3-chlorobenzyl)-6-(1-methylcyclopropoxy)-9H-purin-8-yl)phenoxy)-2-methylbutanoic acid], the IC50 falls from 2510 nM to 63.1 nM (40-fold).

Same assay, conditions: Homo sapiens, DLD-1, first proliferation column (c5), taken as DLD-1 BRCA2-/-; read-out: POLQ PD Prolif Lumin (converted)

In order of falling IC50:
1. Cc1ccnc(Cn2c(-c3ccc(C(=O)N(C)C4COC4)cc3Cl)nc3c(OC4(C)CC4)ncnc32)c1 [Example T320, 3-chloro-N-methyl-4-(6-(1-methylcyclopropoxy)-9-((4-methylpyridin-2-yl)methyl)-9H-purin-8-yl)-N-(oxetan-3-yl)benzamide]  3160 nM
2. CC1(Oc2ncnc3c2nc(-c2ccc(OCC[C@@](C)(O)C(=O)O)cc2Cl)n3Cc2cccc(Cl)c2)CC1 [Example T301, (R)-4-(3-chloro-4-(9-(3-chlorobenzyl)-6-(1-methylcyclopropoxy)-9H-purin-8-yl)phenoxy)-2-hydroxy-2-methylbutanoic acid]  2510 nM
3. Cc1ccnc(Cn2c(-c3ccc(C(=O)NC4CC(O)C4)cc3Cl)nc3c(OC4(C)CC4)ncnc32)c1 (stereo not drawn) [Example T319, 3-chloro-N-(3-hydroxycyclobutyl)-4-(6-(1-methylcyclopropoxy)-9-((4-methylpyridin-2-yl)methyl)-9H-purin-8-yl)benzamide]  2510 nM
4. Cc1ccnc(Cn2c(-c3ccc(C(=O)N4CCOCC4)cc3Cl)nc3c(OC4(C)CC4)ncnc32)c1 [Example T315, (3-chloro-4-(6-(1-methylcyclopropoxy)-9-((4-methylpyridin-2-yl)methyl)-9H-purin-8-yl)phenyl)(morpholino)methanone]  1580 nM
5. Cc1ccnc(Cn2c(-c3ccc(C(=O)N4CC(C)(O)C4)cc3Cl)nc3c(OC4(C)CC4)ncnc32)c1 [Example T314, (3-chloro-4-(6-(1-methylcyclopropoxy)-9-((4-methylpyridin-2-yl)methyl)-9H-purin-8-yl)phenyl)(3-hydroxy-3-methylazetidin-1-yl)methanone]  1260 nM
6. Cc1ccnc(Cn2c(-c3ccc(C(=O)NC4(C)COC4)cc3Cl)nc3c(OC4(C)CC4)ncnc32)c1 [Example T317, 3-chloro-4-(6-(1-methylcyclopropoxy)-9-((4-methylpyridin-2-yl)methyl)-9H-purin-8-yl)-N-(3-methyloxetan-3-yl)benzamide]  1000 nM
7. C[C@@H](OCCOc1ccc(-c2nc3c(OC4(C)CC4)ncnc3n2Cc2cccc(Cl)c2)c(Cl)c1)C(=O)O [Example T306, (R)-2-(2-(3-chloro-4-(9-(3-chlorobenzyl)-6-(1-methylcyclopropoxy)-9H-purin-8-yl)phenoxy)ethoxy)propanoic acid]  794 nM
8. CC1(Oc2ncnc3c2nc(-c2cccc(OCC(C)(C)C(=O)O)c2Cl)n3Cc2cccc(Cl)c2)CC1 [Example T298, 3-(2-chloro-3-(9-(3-chlorobenzyl)-6-(1-methylcyclopropoxy)-9H-purin-8-yl)phenoxy)-2,2-dimethylpropanoic acid]  631 nM
9. Cc1ccnc(Cn2c(-c3ccc(C(=O)N4CCCC4)cc3Cl)nc3c(OC4(C)CC4)ncnc32)c1 [Example T309, (3-chloro-4-(6-(1-methylcyclopropoxy)-9-((4-methylpyridin-2-yl)methyl)-9H-purin-8-yl)phenyl)(pyrrolidin-1-yl)methanone]  631 nM
10. Cc1ccnc(Cn2c(-c3ccc(C(=O)N[C@@H]4CCOC4)cc3Cl)nc3c(OC4(C)CC4)ncnc32)c1 [Example T316, (R)-3-chloro-4-(6-(1-methylcyclopropoxy)-9-((4-methylpyridin-2-yl)methyl)-9H-purin-8-yl)-N-(tetrahydrofuran-3-yl)benzamide]  631 nM
11. Cc1ccnc(Cn2c(-c3ccc(OCC(=O)NC4CC4)cc3Cl)nc3c(OC4(C)CC4)ncnc32)c1 [Example T318, 2-(3-chloro-4-(6-(1-methylcyclopropoxy)-9-((4-methylpyridin-2-yl)methyl)-9H-purin-8-yl)phenoxy)-N-cyclopropylacetamide]  398 nM
12. Cc1ccnc(Cn2c(-c3ccc(OCC(=O)N4CCC4)cc3Cl)nc3c(OC4(C)CC4)ncnc32)c1 [Example T312, 1-(azetidin-1-yl)-2-(3-chloro-4-(6-(1-methylcyclopropoxy)-9-((4-methylpyridin-2-yl)methyl)-9H-purin-8-yl)phenoxy)ethan-1-one]  200 nM
13. Cc1ccnc(Cn2c(-c3ccc(OCCN4CCC4=O)cc3Cl)nc3c(OC4(C)CC4)ncnc32)c1 [Example T313, 1-(2-(3-chloro-4-(6-(1-methylcyclopropoxy)-9-((4-methylpyridin-2-yl)methyl)-9H-purin-8-yl)phenoxy)ethyl)azetidin-2-one]  200 nM
14. CC1(Oc2ncnc3c2nc(-c2ccc(OCCOCCC(=O)O)cc2Cl)n3Cc2cccc(Cl)c2)CC1 [Example T303, 3-(2-(3-chloro-4-(9-(3-chlorobenzyl)-6-(1-methylcyclopropoxy)-9H-purin-8-yl)phenoxy)ethoxy)propanoic acid]  126 nM
